Reference: US9855205B2, “Use of zinc coceth sulfate as an antibacterial agent against propionibacterium acnes” (PIERRE FABRE DERMO-COSMETIQUE, priority 2012, dated 2018)

Assays:
[1] = pH of zinc coceth sulfate; type: physicochemical
[2] = Irritant and sensitising potential
[3] = system: Propionibacterium acnes ATCC6919; experiment: Evaluation of the bactericidal activity against P. acnes (log reduction over contact time); type: cell-based; conditions: Zetesol Zn at 20% (5% active zinc coceth sulfate)
Experimental: The reduction over time of the log 10 of the number of germs in relation to initial number of germs (log R parameter) is evaluated.
The strain tested is Propionibacterium acnes ATCC6919.
Zetesol Zn® was tested at the concentration of 20% (i.e. 5% of active ingredient zinc coceth sulfate).
Method • placing into contact of the product to be tested with suspensions of P. acnes titrated at about 10^6 CFU/ml for 1, 5, 10 and 15 minutes. • Viable count after each duration of contact by inclusion of 1 ml of the sample in a culture agar (Columbia) • Incubation 72 hours at 36° C. in anaerobic conditions • Viable count of residual bacteria via direct counting.
Calculation of the fall in log 10:
The calculation of the fall in log 10 of the number of CFU/ml is carried out according to the formula hereinbelow: Logarithmic reduction=LOG 10(number of CFU present at TO/number of CFU remaining at Tx)
The results indicated in table 1 are the average of two independent tests (except for the duration of 10 min where only 1 test was carried out). Also see FIG. 1. […]

[4] = system: chorio-allantoic membrane of an embryonated chicken egg; experiment: Het Cam test (tolerance on the mucosa); conditions: 1% solution, irritant effects within five minutes, tenth day of incubation
Experimental: Zinc coceth was tested in a 1% solution.

Zinc coceth sulfate [Zetesol ® Zn]
pH [1]: 4.5
irritant and sensitising potential [2]: devoid of any irritant and sensitising potential
Log Reduction in 1 minute ([3]; contact 1 min, average of two tests): 0.63 log
Log Reduction in 5 minutes ([3]; contact 5 min, average of two tests): 2.06 log
Log Reduction in 10 minutes ([3]; contact 10 min, only 1 test): 3.65 log
Log Reduction in 15 minutes ([3]; contact 15 min, average of two tests): >5.04 log
tolerance on the mucosa [4]: good tolerance on the mucosa
